In PubChem BioAssay AID248 (DTP/NCI, 2004):
Several values for one entry are separate records, joined by “and”; a condition that tells them apart may be missing. Equal entries are not always repeated. Toxic doses and inconclusive results are not listed. No stated cut-off is given here; in the data, active means T/C of 150% or more; inactive means T/C below 125%.

Tested on: L1210 leukemia ip in BDF1 mice, survival T/C
Assay: NCI In Vivo Anticancer Drug Screen. Data for tumor model L1210 Leukemia (intraperitoneal) in B6D2F1 (BDF1) mice
Details: endpoint: mean survival time, higher = longer survival
Method in brief: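 Transplantable tumor model; survival measured in treated vs vehicle control mice. Value = treated/control.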

[1] = dose: 100.0 mg/kg/injection, schedule: Q04DX003 (ip), vehicle: Klucel (hydroxypropylcellulose) (HPC)
[2] = dose: 100.0 mg/kg/injection, schedule: Q04DX002 (ip), vehicle: Klucel (hydroxypropylcellulose) (HPC)
[3] = dose: 200.0 mg/kg/injection, schedule: Q04DX002 (ip), vehicle: Klucel (hydroxypropylcellulose) (HPC)
[4] = dose: 400.0 mg/kg/injection, schedule: Q04DX002 (ip), vehicle: Klucel (hydroxypropylcellulose) (HPC)
[5] = dose: 100.0 mg/kg/injection, schedule: Q01DX009 (ip), vehicle: saline with Tween-80
[6] = dose: 200.0 mg/kg/injection, schedule: Q01DX009 (ip), vehicle: saline with Tween-80
[7] = dose: 100.0 mg/kg/injection, schedule: Q04DX003 (ip), vehicle: saline with Tween-80
[8] = dose: 200.0 mg/kg/injection, schedule: Q04DX003 (ip), vehicle: saline with Tween-80
[9] = dose: 400.0 mg/kg/injection, schedule: Q04DX003 (ip), vehicle: saline with Tween-80
[10] = dose: 100.0 mg/kg/injection, schedule: Q01DX001 (ip), vehicle: carboxymethylcellulose (CMC)
[11] = dose: 50.0 mg/kg/injection, schedule: Q01DX001 (ip), vehicle: carboxymethylcellulose (CMC)
[12] = dose: 100.0 mg/kg/injection, schedule: Q01DX001 (ip), vehicle: saline
[13] = dose: 200.0 mg/kg/injection, schedule: Q01DX001 (ip), vehicle: saline

Measured: T/C

CC1(c2ccco2)NC(=O)N(Cl)C1=O (configuration not stated)
inactive: dose: 6.0 mg/kg/injection, schedule: Q04DX003 (ip), vehicle: saline 93 % of control | dose: 12.0 mg/kg/injection, schedule: Q04DX003 (ip), vehicle: saline 101 % of control | dose: 25.0 mg/kg/injection, schedule: Q01DX009 (ip), vehicle: saline 87 % of control | dose: 32.0 mg/kg/injection, schedule: Q04DX003 (ip), vehicle: saline 95 % of control | dose: 50.0 mg/kg/injection, schedule: Q01DX009 (ip), vehicle: saline 98 % of control | dose: 50.0 mg/kg/injection, schedule: Q04DX003 (ip), vehicle: saline 103 % of control | dose: 100.0 mg/kg/injection, schedule: Q01DX009 (ip), vehicle: saline 88 % of control | dose: 100.0 mg/kg/injection, schedule: Q04DX003 (ip), vehicle: saline 97 % of control and 103 % of control

COc1cc([N+](=O)[O-])cc(C=O)c1O
inactive: dose: 25.0 mg/kg/injection, schedule: Q04DX003 (ip), vehicle: Klucel (hydroxypropylcellulose) (HPC) 92 % of control | dose: 50.0 mg/kg/injection, schedule: Q04DX003 (ip), vehicle: Klucel (hydroxypropylcellulose) (HPC) 92 % of control | [1] 96 % of control and 101 % of control

O=C(NCCBr)NC1CC1c1ccccc1 (configuration not stated)
inactive: dose: 20.0 mg/kg/injection, schedule: Q04DX003 (ip), vehicle: Klucel (hydroxypropylcellulose) (HPC) 117 % of control | dose: 40.0 mg/kg/injection, schedule: Q04DX003 (ip), vehicle: Klucel (hydroxypropylcellulose) (HPC) 101 % of control | dose: 80.0 mg/kg/injection, schedule: Q04DX003 (ip), vehicle: Klucel (hydroxypropylcellulose) (HPC) 93 % of control | [1] 118 % of control

O=c1[nH]cnc2c1ncn2CCCOc1ccccc1
inactive: [2] 91 % of control | [3] 88 % of control | [4] 88 % of control

O=C(O)c1cccc(C(=O)O)n1
inactive: dose: 75.0 mg/kg/injection, schedule: Q01DX001 (ip), vehicle: acetone 98 % of control | dose: 150.0 mg/kg/injection, schedule: Q01DX001 (ip), vehicle: acetone 97 % of control

Fc1ccc(P(c2ccc(F)cc2)c2ccc(F)cc2)cc1
inactive: dose: 25.0 mg/kg/injection, schedule: Q01DX009 (ip), vehicle: Klucel (hydroxypropylcellulose) (HPC) 97 % of control | dose: 50.0 mg/kg/injection, schedule: Q01DX009 (ip), vehicle: Klucel (hydroxypropylcellulose) (HPC) 89 % of control | [1] 103 % of control

COC(=O)CC(C)C(C)(C)[N+](=O)[O-] (configuration not stated)
inactive: dose: 50.0 mg/kg/injection, schedule: Q01DX009 (ip), vehicle: saline with Tween-80 92 % of control | [5] 92 % of control | [6] 92 % of control

O=C(/C(=N\N=C\c1c(O)ccc2ccccc12)c1ccccc1)c1ccccc1
inactive: [7] 96 % of control | [8] 98 % of control | [9] 94 % of control

O=C1c2ccccc2C(=O)c2c(O)c(Cc3ccccn3)cc(O)c21
inactive: dose: 100.0 mg/kg/injection, schedule: Q04DX003 (ip), vehicle: saline sonified 89 % of control | dose: 200.0 mg/kg/injection, schedule: Q04DX003 (ip), vehicle: saline sonified 89 % of control | dose: 400.0 mg/kg/injection, schedule: Q04DX003 (ip), vehicle: saline sonified 94 % of control

O=C(Nc1cccc(C2=NCCCN2)c1)c1ccc(C(=O)Nc2cccc(C3=NCCCN3)c2)c([N+](=O)[O-])c1
inactive: dose: 0.05 mg/kg/injection, schedule: Q01DX015 (ip), vehicle: water 98 % of control | dose: 0.09 mg/kg/injection, schedule: Q01DX015 (ip), vehicle: water 96 % of control | dose: 0.19 mg/kg/injection, schedule: Q01DX015 (ip), vehicle: water 98 % of control | dose: 0.38 mg/kg/injection, schedule: Q01DX015 (ip), vehicle: water 101 % of control | dose: 0.5 mg/kg/injection, schedule: Q01DX015 (ip), vehicle: water 97 % of control

CCCCCCCC(=O)Nc1ccc(C)c(C)c1
inactive: [7] 93 % of control | [8] 98 % of control | [9] 93 % of control

CC(=O)NCCc1[nH]cnc1N=Nc1ccc(Br)cc1
inactive: dose: 100.0 mg/kg/injection, schedule: Q01DX001 (ip), vehicle: saline with Tween-80 96 % of control | dose: 200.0 mg/kg/injection, schedule: Q01DX001 (ip), vehicle: saline with Tween-80 96 % of control | dose: 400.0 mg/kg/injection, schedule: Q01DX001 (ip), vehicle: saline with Tween-80 94 % of control

Cc1ccc(N(CCO)CCO)cc1NC(=O)c1ccccc1
inactive: [10] 103 % of control | dose: 200.0 mg/kg/injection, schedule: Q01DX001 (ip), vehicle: carboxymethylcellulose (CMC) 101 % of control | dose: 400.0 mg/kg/injection, schedule: Q01DX001 (ip), vehicle: carboxymethylcellulose (CMC) 101 % of control

Nc1ccc(Cc2ccncc2)cc1
inactive: dose: 25.0 mg/kg/injection, schedule: Q01DX001 (ip), vehicle: carboxymethylcellulose (CMC) 105 % of control | dose: 25.0 mg/kg/injection, schedule: Q01DX009 (ip), vehicle: carboxymethylcellulose (CMC) 102 % of control and 92 % of control | dose: 25.0 mg/kg/injection, schedule: Q04DX002 (ip), vehicle: carboxymethylcellulose (CMC) 94 % of control | dose: 25.0 mg/kg/injection, schedule: Q04DX003 (ip), vehicle: carboxymethylcellulose (CMC) 97 % of control | [11] 102 % of control | dose: 50.0 mg/kg/injection, schedule: Q01DX009 (ip), vehicle: carboxymethylcellulose (CMC) 95 % of control and 98 % of control | dose: 50.0 mg/kg/injection, schedule: Q04DX002 (ip), vehicle: carboxymethylcellulose (CMC) 93 % of control and 103 % of control | dose: 50.0 mg/kg/injection, schedule: Q04DX003 (ip), vehicle: carboxymethylcellulose (CMC) 100 % of control | [10] 103 % of control | dose: 100.0 mg/kg/injection, schedule: Q01DX009 (ip), vehicle: carboxymethylcellulose (CMC) 94 % of control and 103 % of control | dose: 200.0 mg/kg/injection, schedule: Q04DX002 (ip), vehicle: carboxymethylcellulose (CMC) 94 % of control

Cc1cc2nc(/C(C#N)=C/c3cc(Cl)cc(Cl)c3O)[nH]c2cc1C
inactive: dose: 100.0 mg/kg/injection, schedule: Q01DX009 (ip), vehicle: other 93 % of control | dose: 200.0 mg/kg/injection, schedule: Q01DX009 (ip), vehicle: other 104 % of control | dose: 400.0 mg/kg/injection, schedule: Q01DX009 (ip), vehicle: other 93 % of control

O=C1NC(=S)S/C1=C/c1ccc(/C=C2/SC(=S)NC2=O)cc1
inactive: [11] 92 % of control | [10] 94 % of control

CSc1ccc(NC(=O)C(Cl)Cl)cc1
inactive: dose: 100.0 mg/kg/injection, schedule: Q01DX009 (ip), vehicle: Klucel (hydroxypropylcellulose) (HPC) 95 % of control | [2] 97 % of control | dose: 200.0 mg/kg/injection, schedule: Q01DX009 (ip), vehicle: Klucel (hydroxypropylcellulose) (HPC) 105 % of control | dose: 400.0 mg/kg/injection, schedule: Q01DX009 (ip), vehicle: Klucel (hydroxypropylcellulose) (HPC) 101 % of control | [4] 93 % of control

O=C1CCCC(c2ccccc2)O1 (configuration not stated)
inactive: [2] 108 % of control | [3] 101 % of control | [4] 101 % of control

COc1cc2c(cc1OC)C1CCc3cc(OC)c(OC)cc3C1N=C2 (configuration not stated)
inactive: dose: 80.0 mg/kg/injection, schedule: Q01DX009 (ip), vehicle: saline 102 % of control | dose: 120.0 mg/kg/injection, schedule: Q01DX009 (ip), vehicle: saline 93 % of control | dose: 240.0 mg/kg/injection, schedule: Q01DX009 (ip), vehicle: saline 93 % of control | dose: 360.0 mg/kg/injection, schedule: Q01DX009 (ip), vehicle: saline 93 % of control

C=CCOC(=S)S
inactive: [12] 95 % of control | [13] 94 % of control

CC(=O)Nc1ccc(C(C)(C)c2ccc([N+](=O)[O-])cc2)cc1[N+](=O)[O-]
inactive: dose: 50.0 mg/kg/injection, schedule: Q01DX001 (ip), vehicle: other 98 % of control | dose: 100.0 mg/kg/injection, schedule: Q01DX001 (ip), vehicle: other 104 % of control | dose: 400.0 mg/kg/injection, schedule: Q01DX001 (ip), vehicle: other 93 % of control

Clc1cc(-c2ccccc2Br)nc2ccccc12
inactive: [12] 90 % of control | [13] 90 % of control | dose: 400.0 mg/kg/injection, schedule: Q01DX001 (ip), vehicle: saline 88 % of control

CCCN1C(c2ccccc2)=CN(Cc2ccccc2)C=C1c1ccccc1
inactive: [2] 95 % of control | [3] 103 % of control | [4] 106 % of control

c1ccc([Si](c2ccccc2)(c2cccs2)c2cccs2)cc1
inactive: [5] 103 % of control | [6] 95 % of control
